Data as given in PubChem BioAssay AID248 (DTP/NCI, 2004).
“And” between values parts separate entries of the source, which are not always exact repeats. Equal values may be shown once. Inconclusive results and toxic doses are left out. No stated cut-off is given here; in the data, active means T/C of 150% or more; inactive means T/C below 125%.

System: L1210 leukemia ip in BDF1 mice, survival T/C
Experiment: NCI In Vivo Anticancer Drug Screen. Data for tumor model L1210 Leukemia (intraperitoneal) in B6D2F1 (BDF1) mice
Details: endpoint: mean survival time, higher = longer survival
In short: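 Value reflects the ratio of survival in compound-treated mice to survival in vehicle-treated controls, with both groups carrying the same transplanted tumor.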

[1] = dose: 25.0 mg/kg/injection, schedule: Q01DX009 (ip), vehicle: water
[2] = dose: 100.0 mg/kg/injection, schedule: Q04DX002 (ip), vehicle: Klucel (hydroxypropylcellulose) (HPC)
[3] = dose: 200.0 mg/kg/injection, schedule: Q04DX002 (ip), vehicle: Klucel (hydroxypropylcellulose) (HPC)
[4] = dose: 400.0 mg/kg/injection, schedule: Q04DX002 (ip), vehicle: Klucel (hydroxypropylcellulose) (HPC)
[5] = dose: 100.0 mg/kg/injection, schedule: Q04DX002 (ip), vehicle: saline with Tween-80
[6] = dose: 200.0 mg/kg/injection, schedule: Q04DX002 (ip), vehicle: saline with Tween-80
[7] = dose: 400.0 mg/kg/injection, schedule: Q04DX002 (ip), vehicle: saline with Tween-80
[8] = dose: 200.0 mg/kg/injection, schedule: Q01DX001 (ip), vehicle: saline
[9] = dose: 50.0 mg/kg/injection, schedule: Q01DX001 (ip), vehicle: saline
[10] = dose: 100.0 mg/kg/injection, schedule: Q01DX001 (ip), vehicle: carboxymethylcellulose (CMC)
[11] = dose: 200.0 mg/kg/injection, schedule: Q01DX001 (ip), vehicle: carboxymethylcellulose (CMC)
[12] = dose: 400.0 mg/kg/injection, schedule: Q01DX001 (ip), vehicle: carboxymethylcellulose (CMC)
[13] = dose: 100.0 mg/kg/injection, schedule: Q01DX001 (ip), vehicle: Klucel (hydroxypropylcellulose) (HPC)
[14] = dose: 50.0 mg/kg/injection, schedule: Q01DX009 (ip), vehicle: saline with Tween-80
[15] = dose: 100.0 mg/kg/injection, schedule: Q01DX009 (ip), vehicle: saline with Tween-80

Measured: T/C

Cn1cc(/C=C/C(N)=O)c2nccnc21
inactive: dose: 1.56 mg/kg/injection, schedule: Q01DX009 (ip), vehicle: water 94 % of control | dose: 3.12 mg/kg/injection, schedule: Q01DX009 (ip), vehicle: water 92 % of control | dose: 6.25 mg/kg/injection, schedule: Q01DX009 (ip), vehicle: water 107 % of control | dose: 12.5 mg/kg/injection, schedule: Q01DX009 (ip), vehicle: water 103 % of control | [1] 100 % of control and 110 % of control

NC(=O)Nc1ccccc1-c1ccccc1
inactive: [2] 103 % of control | [3] 109 % of control | [4] 103 % of control

S=C(NCCS)Nc1ccccc1
inactive: dose: 100.0 mg/kg/injection, schedule: Q04DX003 (ip), vehicle: Klucel (hydroxypropylcellulose) (HPC) 98 % of control | dose: 200.0 mg/kg/injection, schedule: Q04DX003 (ip), vehicle: Klucel (hydroxypropylcellulose) (HPC) 105 % of control | dose: 400.0 mg/kg/injection, schedule: Q04DX003 (ip), vehicle: Klucel (hydroxypropylcellulose) (HPC) 99 % of control

Cc1c2cc[nH]c(C(F)(F)F)c2cc2c1nc1ccccc12
inactive: dose: 16.0 mg/kg/injection, schedule: Q01DX005 (ip), vehicle: saline 101 % of control | dose: 32.0 mg/kg/injection, schedule: Q01DX005 (ip), vehicle: saline 103 % of control | dose: 64.0 mg/kg/injection, schedule: Q01DX005 (ip), vehicle: saline 103 % of control | dose: 128.0 mg/kg/injection, schedule: Q01DX005 (ip), vehicle: saline 103 % of control

O=C1OC2(c3ccc(O)cc3Oc3cc(O)ccc32)C2C3CCC(O3)C12 (stereo unspecified)
inactive: [2] 100 % of control | [3] 118 % of control

COCCCn1nnc2ccccc2c1=O
inactive: dose: 100.0 mg/kg/injection, schedule: Q04DX003 (ip), vehicle: saline 98 % of control | dose: 200.0 mg/kg/injection, schedule: Q04DX003 (ip), vehicle: saline 93 % of control | dose: 400.0 mg/kg/injection, schedule: Q04DX003 (ip), vehicle: saline 100 % of control

CCOC(=O)c1ccc(N(N=O)C(C)C)cc1
inactive: [5] 101 % of control | [6] 86 % of control | [7] 97 % of control

COc1ccc2nc3cc(Cl)ccc3c(NCCCCCN3CCCCC3)c2c1
inactive: dose: 5.0 mg/kg/injection, schedule: Q01DX001 (ip), vehicle: saline 97 % of control | dose: 10.0 mg/kg/injection, schedule: Q01DX001 (ip), vehicle: saline 97 % of control | dose: 20.0 mg/kg/injection, schedule: Q01DX001 (ip), vehicle: saline 101 % of control | dose: 40.0 mg/kg/injection, schedule: Q01DX001 (ip), vehicle: saline 106 % of control | dose: 80.0 mg/kg/injection, schedule: Q01DX001 (ip), vehicle: saline 100 % of control | [8] 94 % of control

CC1=NCCc2ccccc21
inactive: dose: 6.25 mg/kg/injection, schedule: Q01DX009 (ip), vehicle: saline 92 % of control | dose: 12.5 mg/kg/injection, schedule: Q01DX009 (ip), vehicle: saline 95 % of control | dose: 25.0 mg/kg/injection, schedule: Q01DX009 (ip), vehicle: saline 90 % of control

CCCCSP(=S)(SCCCC)c1ccc(Cl)cc1
inactive: [5] 90 % of control | [6] 93 % of control | [7] 97 % of control

CCCCOCCOC(=O)CC(/C=C(/C)CC(C)(C)C)C(=O)OCCOCCCC (stereo unspecified)
inactive: dose: 222.0 mg/kg/injection, schedule: Q01DX Z (ip), vehicle: methylcellulose (MC) 101 % of control | dose: 333.0 mg/kg/injection, schedule: Q01DX Z (ip), vehicle: methylcellulose (MC) 108 % of control | dose: 500.0 mg/kg/injection, schedule: Q01DX Z (ip), vehicle: methylcellulose (MC) 96 % of control

CC1(C)CC(=O)C2C(C1)Nc1ccccc1NC2c1ccccc1[N+](=O)[O-] (stereo unspecified)
inactive: [2] 103 % of control and 110 % of control | [3] 98 % of control and 92 % of control | [4] 95 % of control

NC(N)=N/N=C/c1ccc(Cl)cc1Cl
inactive: dose: 30.0 mg/kg/injection, schedule: Q01DX010 (oral), vehicle: saline 102 % of control | dose: 44.0 mg/kg/injection, schedule: Q01DX010 (oral), vehicle: saline 100 % of control | [9] 100 % of control | dose: 63.0 mg/kg/injection, schedule: Q01DX Z (ip), vehicle: saline 101 % of control | dose: 66.0 mg/kg/injection, schedule: Q01DX010 (oral), vehicle: saline 104 % of control | dose: 99.0 mg/kg/injection, schedule: Q01DX010 (oral), vehicle: saline 98 % of control | dose: 100.0 mg/kg/injection, schedule: Q01DX001 (ip), vehicle: saline 106 % of control | [8] 108 % of control

OC(c1ccccc1)(c1ccccc1)c1cccnc1
inactive: dose: 75.0 mg/kg/injection, schedule: Q04DX002 (ip), vehicle: saline 105 % of control | dose: 150.0 mg/kg/injection, schedule: Q04DX002 (ip), vehicle: saline 93 % of control

C=C1CC[N+]2(CC(=O)c3ccc(Br)cc3)CCCC12 (stereo unspecified)
inactive: dose: 12.5 mg/kg/injection, schedule: Q01DX001 (ip), vehicle: saline 92 % of control | dose: 25.0 mg/kg/injection, schedule: Q01DX001 (ip), vehicle: saline 92 % of control | [9] 101 % of control

CCC(O)c1ccc2ccccc2c1 (stereo unspecified)
inactive: [10] 98 % of control | [11] 98 % of control | [12] 93 % of control

Cc1nc(N)sc1N=Nc1cccc(Cl)c1Cl
inactive: dose: 75.0 mg/kg/injection, schedule: Q01DX001 (ip), vehicle: saline 88 % of control | dose: 150.0 mg/kg/injection, schedule: Q01DX001 (ip), vehicle: saline 92 % of control | dose: 300.0 mg/kg/injection, schedule: Q01DX001 (ip), vehicle: saline 93 % of control

CNC1C(O)C(OC2C(N)CC(N)C(OC3OC(CN)=CCC3N)C2O)OCC1(C)O (stereo unspecified)
inactive: dose: 63.5 mg/kg/injection, schedule: Q04DX002 (ip), vehicle: saline with Tween-80 90 % of control | dose: 125.0 mg/kg/injection, schedule: Q04DX002 (ip), vehicle: saline with Tween-80 97 % of control | dose: 250.0 mg/kg/injection, schedule: Q04DX002 (ip), vehicle: saline with Tween-80 87 % of control

CN(C)S(=O)(=O)N(C)C
inactive: [13] 96 % of control | dose: 200.0 mg/kg/injection, schedule: Q01DX001 (ip), vehicle: Klucel (hydroxypropylcellulose) (HPC) 102 % of control | dose: 400.0 mg/kg/injection, schedule: Q01DX001 (ip), vehicle: Klucel (hydroxypropylcellulose) (HPC) 102 % of control

CC12c3ccccc3C(c3ccccc31)C1C(=O)OC(=O)C12 (stereo unspecified)
inactive: [10] 98 % of control | dose: 100.0 mg/kg/injection, schedule: Q04DX003 (ip), vehicle: saline with Tween-80 90 % of control | [11] 96 % of control | dose: 200.0 mg/kg/injection, schedule: Q04DX003 (ip), vehicle: saline with Tween-80 92 % of control | [12] 93 % of control

O=C1C(Cl)(Cl)CCCC1(Cl)Cl
inactive: [14] 98 % of control | [15] 105 % of control | dose: 200.0 mg/kg/injection, schedule: Q01DX009 (ip), vehicle: saline with Tween-80 110 % of control

CCCCCCCCCCOB(OCCCCCCCCCC)OCCCCCCCCCC
inactive: dose: 25.0 mg/kg/injection, schedule: Q01DX009 (ip), vehicle: saline with Tween-80 93 % of control | [14] 96 % of control | [15] 96 % of control

CC1CN(Cc2cccc(C#N)c2)CC(C)N1 (stereo unspecified)
inactive: [1] 93 % of control | dose: 50.0 mg/kg/injection, schedule: Q01DX009 (ip), vehicle: water 101 % of control | dose: 100.0 mg/kg/injection, schedule: Q01DX009 (ip), vehicle: water 100 % of control

S=C(NCc1ccco1)NCc1ccco1
inactive: dose: 155.0 mg/kg/injection, schedule: Q01DX Z (ip), vehicle: methylcellulose (MC) 92 % of control | dose: 233.0 mg/kg/injection, schedule: Q01DX Z (ip), vehicle: methylcellulose (MC) 100 % of control

c1ccc2[nH]c(SCCSc3nc4ccccc4[nH]3)nc2c1
inactive: [2] 111 % of control | [3] 107 % of control | [4] 92 % of control

CC1(CCCOc2ccccc2C(=O)NCBr)N=C(N)N=C(N)N1c1ccccc1 (stereo unspecified)
inactive: [13] 104 % of control
